# Results reported in ChEMBL document CHEMBL3351955, “Identification of potent and selective hydantoin inhibitors of aggrecanase-1 and aggrecanase-2 that are efficacious in both chemical and surgical models of osteoarthritis” (J Med Chem, 2014).
# Key:
# [1] = molecular target: Matrix metalloproteinase-14 (Homo sapiens, UniProt P50281); test: Inhibition of human MMP14 using Mca-PQG1 peptide substrate assessed as substrate cleavage after 2 to 4 hrs
# [2] = Oral bioavailability in Sprague-Dawley rat; assay type: ADME, organism-based; conditions: in vivo
# [3] = Plasma concentration in rat at 10 mg/kg, po after 8 hrs; assay type: ADME, organism-based; parameters: dose 10 mg/kg, route oral
# [4] = system: Rattus norvegicus; test: Reduction in ADAMTS-4/ADAMTS-5-mediated aggrecan cleavage products in po dosed Lewis rat MIA model assessed as aggrecanase-cleaved fragments treatment starting from day 3 and single dose given on day 7 followed by animal sacrificed 4 hrs later by NITEGE sandwich ELISA assay; assay type: functional
# [5] = molecular target: T1, A disintegrin and metalloproteinase with thrombospondin motifs 5 (Homo sapiens, UniProt Q9UNA0); test: Inhibition of human ADAMTS-5 using VQTVTWPDMELPLPRNITEGEARGSVILTVKPIFEVSPSPLKG peptide substrate by AlphaScreen assay in presence of 50% rat plasma
# T1 sequence (Q9UNA0 whole entry): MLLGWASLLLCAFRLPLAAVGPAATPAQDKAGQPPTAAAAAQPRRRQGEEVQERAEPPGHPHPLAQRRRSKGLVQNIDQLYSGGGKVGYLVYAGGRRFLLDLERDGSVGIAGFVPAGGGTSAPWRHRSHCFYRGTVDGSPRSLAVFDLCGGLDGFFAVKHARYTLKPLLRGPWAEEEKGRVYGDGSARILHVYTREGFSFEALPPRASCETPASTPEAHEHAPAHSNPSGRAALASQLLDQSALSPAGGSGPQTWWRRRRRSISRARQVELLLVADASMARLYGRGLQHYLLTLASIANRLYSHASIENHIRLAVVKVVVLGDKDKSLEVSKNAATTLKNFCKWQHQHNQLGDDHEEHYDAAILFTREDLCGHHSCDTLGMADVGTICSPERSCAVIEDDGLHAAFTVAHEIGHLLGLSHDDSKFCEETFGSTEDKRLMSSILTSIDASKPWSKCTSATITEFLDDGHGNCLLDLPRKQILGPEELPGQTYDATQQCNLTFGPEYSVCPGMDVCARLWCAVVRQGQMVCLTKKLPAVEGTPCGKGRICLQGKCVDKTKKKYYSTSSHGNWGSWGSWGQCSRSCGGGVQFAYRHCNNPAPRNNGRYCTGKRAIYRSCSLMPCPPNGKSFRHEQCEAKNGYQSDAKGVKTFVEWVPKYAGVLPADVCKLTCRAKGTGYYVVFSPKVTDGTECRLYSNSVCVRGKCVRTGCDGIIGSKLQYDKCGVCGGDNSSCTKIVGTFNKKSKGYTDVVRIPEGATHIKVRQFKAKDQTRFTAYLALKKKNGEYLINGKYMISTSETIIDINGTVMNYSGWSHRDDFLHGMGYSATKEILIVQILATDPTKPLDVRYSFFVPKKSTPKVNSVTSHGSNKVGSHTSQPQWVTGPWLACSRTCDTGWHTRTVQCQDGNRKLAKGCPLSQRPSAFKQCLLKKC
# [6] = molecular target: 72 kDa type IV collagenase (Homo sapiens, UniProt P08253); test: Inhibition of human MMP2 using Mca-PQG1 peptide substrate assessed as substrate cleavage after 2 to 4 hrs
# [7] = molecular target: Stromelysin-1 (Homo sapiens, UniProt P08254); test: Inhibition of human MMP3 using Mca-PQG1 peptide substrate assessed as substrate cleavage after 2 to 4 hrs
# [8] = Clearance in Sprague-Dawley rat; assay type: ADME, organism-based; conditions: in vivo
# [9] = molecular target: T2, A disintegrin and metalloproteinase with thrombospondin motifs 4 (Homo sapiens, UniProt O75173); test: Inhibition of human ADAMTS-4 using VQTVTWPDMELPLPRNITEGEARGSVILTVKPIFEVSPSPLKG peptide substrate by AlphaScreen assay
# T2 sequence (O75173 whole entry): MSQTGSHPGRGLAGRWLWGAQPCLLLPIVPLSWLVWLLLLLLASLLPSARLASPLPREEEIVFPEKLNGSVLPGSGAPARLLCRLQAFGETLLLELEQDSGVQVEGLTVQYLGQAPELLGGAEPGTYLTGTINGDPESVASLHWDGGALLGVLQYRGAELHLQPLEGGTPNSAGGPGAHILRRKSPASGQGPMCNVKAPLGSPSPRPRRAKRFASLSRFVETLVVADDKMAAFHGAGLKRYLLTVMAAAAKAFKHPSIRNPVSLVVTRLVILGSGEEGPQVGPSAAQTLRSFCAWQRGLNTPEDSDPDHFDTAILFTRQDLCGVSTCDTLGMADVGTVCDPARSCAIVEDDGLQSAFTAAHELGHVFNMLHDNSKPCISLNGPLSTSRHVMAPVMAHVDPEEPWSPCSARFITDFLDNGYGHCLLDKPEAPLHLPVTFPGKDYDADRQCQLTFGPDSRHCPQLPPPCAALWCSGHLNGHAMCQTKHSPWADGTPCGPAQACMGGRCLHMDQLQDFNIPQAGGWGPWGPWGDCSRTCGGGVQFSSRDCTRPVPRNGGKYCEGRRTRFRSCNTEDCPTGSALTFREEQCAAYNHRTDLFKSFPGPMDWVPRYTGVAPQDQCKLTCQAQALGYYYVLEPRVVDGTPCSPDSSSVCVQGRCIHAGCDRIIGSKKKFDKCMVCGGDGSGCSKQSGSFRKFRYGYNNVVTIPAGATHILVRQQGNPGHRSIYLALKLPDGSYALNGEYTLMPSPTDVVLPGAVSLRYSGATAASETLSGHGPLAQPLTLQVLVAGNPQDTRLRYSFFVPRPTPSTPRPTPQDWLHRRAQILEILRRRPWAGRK
# [10] = Cmax in Sprague-Dawley rat at 10 mg/kg, po; assay type: ADME, organism-based; parameters: dose 10 mg/kg, route oral; conditions: in vivo
# [11] = Metabolic stability in rat liver microsomes assessed as compound degradation after 30 mins by LC-MS analysis; assay type: ADME, Microsome; conditions: read-out: Drug degradation
# [12] = Tmax in Sprague-Dawley rat at 10 mg/kg, po; assay type: ADME, organism-based; parameters: dose 10 mg/kg, route oral; conditions: in vivo
# [13] = molecular target: Collagenase 3 (Homo sapiens, UniProt P45452); test: Inhibition of human MMP13 using Mca-PQG1 peptide substrate assessed as substrate cleavage after 2 to 4 hrs
# [14] = molecular target: Cytochrome P450 2D6 (Homo sapiens, UniProt P10635); test: Inhibition of human CYP2D6; assay type: ADME
# [15] = molecular target: Cytochrome P450 2C9 (Homo sapiens, UniProt P11712); test: Inhibition of human CYP2C9; assay type: ADME
# [16] = AUC in Sprague-Dawley rat at 10 mg/kg, po; assay type: ADME, organism-based; parameters: dose 10 mg/kg, route oral; conditions: plasma
# [17] = Plasma concentration in rat at 10 mg/kg, po after 2 hrs; assay type: ADME, organism-based; parameters: dose 10 mg/kg, route oral
# [18] = Half life in Sprague-Dawley rat at 10 mg/kg, po; assay type: ADME, organism-based; parameters: dose 10 mg/kg, route oral; conditions: in vivo
# [19] = molecular target: Cytochrome P450 3A4 (Homo sapiens, UniProt P08684); test: Inhibition of human CYP3A4; assay type: ADME
# [20] = molecular target: T1, A disintegrin and metalloproteinase with thrombospondin motifs 5; test: Inhibition of human ADAMTS-5 using VQTVTWPDMELPLPRNITEGEARGSVILTVKPIFEVSPSPLKG peptide substrate by AlphaScreen assay
# [21] = Metabolic stability in human liver microsomes assessed as compound degradation after 30 mins by LC-MS analysis; assay type: ADME, Microsome; conditions: read-out: Drug degradation
# [22] = molecular target: Disintegrin and metalloproteinase domain-containing protein 17 (Homo sapiens, UniProt P78536); test: Inhibition of human TACE using Mca-PQG1 peptide substrate assessed as substrate cleavage after 2 to 4 hrs
# [23] = species: Rattus norvegicus; test: Reduction in meniscal tear-induced osteoarthritis total joint score in chronic BID Lewis rat surgical model; assay type: functional, organism-based
# Sequence of 72 kDa type IV collagenase (P08253 whole entry): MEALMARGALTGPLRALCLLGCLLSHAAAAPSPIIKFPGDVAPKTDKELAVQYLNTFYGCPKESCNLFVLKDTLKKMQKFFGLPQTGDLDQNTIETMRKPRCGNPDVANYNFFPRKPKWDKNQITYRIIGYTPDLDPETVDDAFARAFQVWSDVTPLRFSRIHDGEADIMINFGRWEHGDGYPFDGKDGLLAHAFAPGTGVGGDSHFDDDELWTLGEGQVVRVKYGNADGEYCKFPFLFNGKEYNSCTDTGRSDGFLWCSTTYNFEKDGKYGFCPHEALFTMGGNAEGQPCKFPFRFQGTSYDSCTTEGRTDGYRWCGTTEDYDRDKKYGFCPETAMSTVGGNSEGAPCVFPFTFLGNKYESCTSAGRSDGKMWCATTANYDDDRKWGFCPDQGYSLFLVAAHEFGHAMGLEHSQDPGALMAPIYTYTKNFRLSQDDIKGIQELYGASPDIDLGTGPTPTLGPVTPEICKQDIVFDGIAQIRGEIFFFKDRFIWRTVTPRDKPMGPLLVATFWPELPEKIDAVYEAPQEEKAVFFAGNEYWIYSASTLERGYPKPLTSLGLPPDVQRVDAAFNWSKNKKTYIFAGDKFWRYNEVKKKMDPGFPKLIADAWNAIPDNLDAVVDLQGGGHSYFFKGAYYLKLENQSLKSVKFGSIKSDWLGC
# Sequence of Stromelysin-1 (P08254 whole entry): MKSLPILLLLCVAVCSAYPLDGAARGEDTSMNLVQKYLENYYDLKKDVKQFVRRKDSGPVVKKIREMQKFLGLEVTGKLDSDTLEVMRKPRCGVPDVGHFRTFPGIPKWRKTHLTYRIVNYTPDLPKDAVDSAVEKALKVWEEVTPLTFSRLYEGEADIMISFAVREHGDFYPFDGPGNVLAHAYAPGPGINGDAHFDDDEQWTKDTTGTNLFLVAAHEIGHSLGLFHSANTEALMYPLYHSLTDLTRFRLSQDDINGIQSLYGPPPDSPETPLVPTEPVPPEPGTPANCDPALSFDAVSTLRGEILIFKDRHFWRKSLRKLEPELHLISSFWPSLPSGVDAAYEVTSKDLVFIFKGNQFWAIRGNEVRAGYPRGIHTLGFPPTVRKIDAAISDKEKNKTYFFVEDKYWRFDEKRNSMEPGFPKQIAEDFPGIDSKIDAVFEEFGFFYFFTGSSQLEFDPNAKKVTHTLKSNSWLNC
# Sequence of Disintegrin and metalloproteinase domain-containing protein 17 (P78536 whole entry, the tested form may be a part): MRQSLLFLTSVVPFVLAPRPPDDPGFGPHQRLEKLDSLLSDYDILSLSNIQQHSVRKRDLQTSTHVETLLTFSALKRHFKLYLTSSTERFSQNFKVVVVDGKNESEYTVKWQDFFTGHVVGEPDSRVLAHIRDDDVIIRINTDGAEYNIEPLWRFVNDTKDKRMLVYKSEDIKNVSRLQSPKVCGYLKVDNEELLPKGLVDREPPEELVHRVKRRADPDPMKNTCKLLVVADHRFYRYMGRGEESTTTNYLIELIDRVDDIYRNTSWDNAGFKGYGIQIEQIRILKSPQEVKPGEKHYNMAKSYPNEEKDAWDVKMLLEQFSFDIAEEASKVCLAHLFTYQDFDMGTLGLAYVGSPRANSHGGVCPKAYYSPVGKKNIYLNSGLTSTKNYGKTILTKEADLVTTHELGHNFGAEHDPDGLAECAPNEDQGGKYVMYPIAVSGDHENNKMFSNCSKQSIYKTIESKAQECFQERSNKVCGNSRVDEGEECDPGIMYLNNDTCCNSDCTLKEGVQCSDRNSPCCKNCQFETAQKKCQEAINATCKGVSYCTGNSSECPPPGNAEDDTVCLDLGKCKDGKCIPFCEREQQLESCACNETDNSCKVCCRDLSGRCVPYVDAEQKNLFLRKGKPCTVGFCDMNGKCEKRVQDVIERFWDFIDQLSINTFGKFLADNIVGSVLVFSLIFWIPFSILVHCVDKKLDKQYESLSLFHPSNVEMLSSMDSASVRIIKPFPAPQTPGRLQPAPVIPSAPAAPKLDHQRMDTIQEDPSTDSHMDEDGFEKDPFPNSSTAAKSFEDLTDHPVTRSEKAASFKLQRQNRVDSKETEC
# Sequence of Cytochrome P450 2D6 (P10635 whole entry): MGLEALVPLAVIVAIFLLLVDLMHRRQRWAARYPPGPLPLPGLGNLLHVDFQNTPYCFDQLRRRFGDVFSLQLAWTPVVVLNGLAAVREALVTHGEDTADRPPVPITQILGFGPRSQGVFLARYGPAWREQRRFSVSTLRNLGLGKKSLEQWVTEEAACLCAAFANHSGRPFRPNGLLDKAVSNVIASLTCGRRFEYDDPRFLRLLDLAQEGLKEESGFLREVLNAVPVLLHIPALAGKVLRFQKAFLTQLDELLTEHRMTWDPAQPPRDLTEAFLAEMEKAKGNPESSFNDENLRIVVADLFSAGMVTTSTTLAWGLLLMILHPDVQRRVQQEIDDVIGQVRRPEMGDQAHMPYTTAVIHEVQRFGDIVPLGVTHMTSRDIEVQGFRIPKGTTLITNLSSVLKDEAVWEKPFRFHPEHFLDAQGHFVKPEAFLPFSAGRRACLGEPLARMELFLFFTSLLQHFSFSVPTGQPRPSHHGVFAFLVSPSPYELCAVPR
# Sequence of Cytochrome P450 3A4 (P08684 whole entry): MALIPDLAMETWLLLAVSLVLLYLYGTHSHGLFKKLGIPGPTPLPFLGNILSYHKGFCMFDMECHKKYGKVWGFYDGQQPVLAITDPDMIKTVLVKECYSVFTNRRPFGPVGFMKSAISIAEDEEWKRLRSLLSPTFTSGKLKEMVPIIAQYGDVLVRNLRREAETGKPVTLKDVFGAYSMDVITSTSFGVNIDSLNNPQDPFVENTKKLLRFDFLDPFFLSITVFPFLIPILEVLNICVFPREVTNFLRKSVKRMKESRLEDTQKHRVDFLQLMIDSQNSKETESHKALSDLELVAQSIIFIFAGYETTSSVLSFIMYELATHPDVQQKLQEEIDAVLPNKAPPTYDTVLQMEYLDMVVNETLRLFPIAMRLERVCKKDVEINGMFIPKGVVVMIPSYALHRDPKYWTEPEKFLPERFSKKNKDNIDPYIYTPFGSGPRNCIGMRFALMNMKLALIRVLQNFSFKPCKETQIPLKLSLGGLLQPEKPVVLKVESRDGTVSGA
# Sequence of Cytochrome P450 2C9 (P11712 whole entry): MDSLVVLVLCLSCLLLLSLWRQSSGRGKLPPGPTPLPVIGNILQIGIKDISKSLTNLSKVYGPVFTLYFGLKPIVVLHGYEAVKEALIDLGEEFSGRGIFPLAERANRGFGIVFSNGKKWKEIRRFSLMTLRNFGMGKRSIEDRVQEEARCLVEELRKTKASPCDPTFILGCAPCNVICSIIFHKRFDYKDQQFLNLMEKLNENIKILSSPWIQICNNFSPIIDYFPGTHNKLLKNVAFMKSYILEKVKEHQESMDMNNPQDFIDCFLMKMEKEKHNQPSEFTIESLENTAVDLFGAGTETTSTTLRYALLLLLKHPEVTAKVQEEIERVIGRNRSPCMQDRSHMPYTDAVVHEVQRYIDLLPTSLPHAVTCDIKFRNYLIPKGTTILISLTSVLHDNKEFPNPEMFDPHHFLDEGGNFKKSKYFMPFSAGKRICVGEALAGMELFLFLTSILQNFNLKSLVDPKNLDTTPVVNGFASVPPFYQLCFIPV
SMILES,IC50 [1] [nM],bioavailability [2] [%],concentration at 8 h [3] [ng/mL],IC50 [5] [nM],IC50 [6] [nM],IC50 [7] [nM],clearance [8] [mL/min/kg],IC50 [9] [nM],Cmax [10] [ng/mL],metabolised at 0.5 h [11] [%],Tmax [12] [h],IC50 [13] [nM],AUC [16] [ng·h/mL],concentration at 2 h [17] [ng/mL],half-life [18] [h],IC50 [20] [nM],metabolised at 0.5 h [21] [%],IC50 [22] [nM],further results
C[C@]1(CNC(=O)COc2ccc(Cl)cc2)NC(=O)NC1=O,> 50000,–,50,620,24000,50000,–,74,–,–,–,7000,–,430,–,350,–,–,–
O=C1NC(=O)[C@](CNC(=O)c2cc3cc(Cl)ccc3o2)(c2nccs2)N1,–,72,1300,–,–,–,4,–,6900,16,0.33,–,28000,4300,3.2,–,16,–,–
Cc1cccnc1[C@]1(CNC(=O)c2cc3cc(Cl)ccc3o2)NC(=O)NC1=O (racemic),18000,–,–,1700,6100,20000,–,17,–,–,–,3100,–,–,–,19,–,–,–
Cn1nccc1[C@]1(CNC(=O)c2cc3cc(Cl)ccc3o2)NC(=O)NC1=O,8600,–,–,530,7100,64000,–,22,–,–,–,4700,–,–,–,19,–,–,–
C[C@]1(CNC(=O)c2cc3cc(Cl)ccc3o2)NC(=O)NC1=O (racemic),–,–,–,2400,–,–,–,110,–,–,–,–,–,–,–,150,–,–,–

# More lines, in order of falling IC50 [5], values ahead:
IC50 [1] [nM],bioavailability [2] [%],concentration at 8 h [3] [ng/mL],IC50 [5] [nM],IC50 [6] [nM],IC50 [7] [nM],clearance [8] [mL/min/kg],IC50 [9] [nM],Cmax [10] [ng/mL],metabolised at 0.5 h [11] [%],Tmax [12] [h],IC50 [13] [nM],AUC [16] [ng·h/mL],concentration at 2 h [17] [ng/mL],half-life [18] [h],IC50 [20] [nM],metabolised at 0.5 h [21] [%],IC50 [22] [nM],SMILES,further results
3500,–,–,420,2100,3000,–,12,–,–,–,720,–,< 200,–,22,–,5400,O=C1NC(=O)[C@](CNC(=O)c2cc3cc(Cl)ccc3o2)(c2ccccc2)N1,–
> 100000,58,80,110,7500,38000,13,5,4100,13,0.33,4200,8100,2200,4.2,9,17,–,Cn1ccnc1[C@]1(CNC(=O)c2cc3cc(Cl)ccc3o2)NC(=O)NC1=O,ED50 [4]: 75 mg/kg; inhibition (INH) [14]: < 5%; inhibition (INH) [15]: < 5%; inhibition (INH) [19]: < 5%
86000,25,90,35,11000,69000,4.8,4,3200,7,1.6,30000,8500,1100,4.3,4,< 5,10000,Cn1ccnc1[C@]1(CNC(=O)c2cc3cc(C(F)(F)F)ccc3o2)NC(=O)NC1=O,ED50 [4]: 30 mg/kg; inhibition [23]: Dose-dependent effect; inhibition (INH) [14]: < 5%; inhibition (INH) [15]: < 5%; inhibition (INH) [19]: < 5%
150,–,840,18,5,3,–,1,–,–,–,1,–,1900,–,1,–,7,C[C@@]1(O)CCCN(S(=O)(=O)c2ccc(OCc3ccc(F)cc3Cl)cc2)[C@H]1C(=O)NO,–
